Each block holds one compound with its values, some of them ahead of it.
Assays:
[1] = test system: HepG2 cells; assay: Glucose production assay in HepG2 cells; format: cell-based, human
Description: (§1) Equal numbers of Human HepG2 or rat H4IIE cells (1-1.5×10^5 cells/well) were seeded on 96 well plates in 10% FBS-containing media for 24 hr. Cells were then washed twice with PBS, and treated with various concentrations of compounds, metformin or insulin in 100 μl of glucose production media (glucose-free, phenol red-free DMEM media supplemented with 20 mM sodium lactate, 2 mM sodium pyruvate and 5 mM HEPES) at 37° C. for 24 hr (H4IIE cells only) or 48 hr (HepG2 cell only). Cells were also incubated with 0.24% DMSO (the maximal volume of DMSO solvent used in the experiments).
(§2) After the above treatments, 50 μl of culture media were collected, and subjected to glucose analysis using Molecular Probes Amplex Red glucose assay kit (Cat #A22189) according to the manufacturer's protocol. Cell numbers or viability in the culture plate after the above compound treatments were determined using Promega's CellTiter96® AQueous One Solution Cell Proliferation Assay kits, according to the manufacturer's protocol and instructions. In brief, after removing 50 μl of culture media for glucose assay, cells were incubated with AQueous One solution (25 μl stock solution and 50 μl prewarmed PBS/per well) at 37° C. for 1 hour, and the absorbance of OD490 nm in each sample was determined by the Bio-Tek microplate reader. Cell viability in culture wells were determined by the subtraction of OD490 nm in cultured cells with the OD490 nm in plain culture media (without seeding of cells). Glucose production in the culture cells were obtained by normalizing the glucose concentration in culture media by cell viability in each well. At least 3 samples per each treatment were examined for the above analysis. Data are presented as Mean±SEM of those samples. Experiments were repeated at least twice.
(§3) The half maximal inhibitory concentration (IC50 values) of Compound #43 or metformin for the inhibition of glucose production were determined using the ED50 Plus v1.0 online software.

[2] = test system: Lepr^db/db mice; assay: Chronic treatment: fasting blood glucose and HbA1c in Lepr^db/db mice; format: in vivo, mouse; settings: for effect on HbA1c levels: 25 μg selenium/kg ip daily for 90 days from 41 days of age (FIG. 5)
Description: (§4) Male Lepr^db/db mice at 38 days of age were intraperitoneally (ip) injected daily with physiological saline ([…]) containing 0.2% DMSO, Compound #C, Compound #50, Compound #68, and/or Compound #43 (25 μg selenium or sulfur equivalents of each compound per kilogram body weight, diluted in sterile physiological saline) for periods ranging from 43-90 days. Body weights of the above treated mice were recorded daily using a balance and any visible abnormal animal gross morphology and walking behavior were monitored daily. After the treatments, animals were fasted overnight and then subjected to blood glucose or HbA1c assays, glucose tolerance tests or tissue collections.
(§5) For comparative studies of any potential anti-diabetic effects of Compounds #43, #69 and #70, male Lepr^db/db mice at 41 days of age were intraperitoneally (ip) injected daily with physiological saline ([…]) containing 0.2% DMSO, Compound #43, Compound #69, or Compound #70 (25 μg selenium of each compound per kilogram body weight, diluted in sterile physiological saline). After the treatments for 43 days, animals were fasted overnight and then subjected to blood glucose and glucose tolerance tests. After daily treatments of these compounds for 90 days, sera from these animals were collected and then subjected to blood HbA1c assays.
After treatment with physiological saline or compounds or after the injection of a bolus of glucose, a small drop of blood from each mouse was collected by snipping the mouse tail tip. Blood glucose levels were determined using a Glucometer with a maximum capability for glucose measurement of 600 mg/dL.
After saline or compound treatments, a small drop of blood from the mouse tail was collected in an EDTA-coated eppendorf tube (to prevent blood coagulation) (Fisher Scientific), and then subjected to a HbA1c assay using the Crystal Chem's or Kamiya's mouse glycated hemoglobin A1c ELISA kit, according to the manufacturer's protocol. Also after the final treatments, mouse serum was collected and subjected to HbA1c assay using the Kamiya Biomeidcal Company's mouse HbA1c kit, according to the manufacturer's protocol.

[3] = Body weight, gross morphology and walking behavior of treated Lepr^db/db mice; format: in vivo
Description: Body weights of the above treated mice were recorded daily using a balance and any visible abnormal animal gross morphology and walking behavior were monitored daily. After the treatments, animals were fasted overnight and then subjected to blood glucose or HbA1c assays, glucose tolerance tests or tissue collections.
After the treatments for 43 days, animals were fasted overnight and then subjected to blood glucose and glucose tolerance tests. After daily treatments of these compounds for 90 days, sera from these animals were collected and then subjected to blood HbA1c assays.

[4] = test system: Lepr^db/db mice; assay: Glucose tolerance test in Lepr^db/db mice; format: in vivo, mouse
Description: as §4, §5
Glucose tolerance tests were performed as described previously (Li et al, Int J Biol Sci 2008; 4:29-36). Briefly, overnight-fasted Lepr^db/db mice after saline or compound treatments were injected intraperitoneally with 2 grams/kg body weight of 20% D-glucose. Blood glucose levels at time 0 (immediately before the injection of glucose), 0.25, 0.5, 1 and 2 hours after injection of glucose were determined using a glucometer with a maximum glucose measurement capacity of 600 mg/dL. Because of this, blood glucose levels over 600 mg/dL were counted as 600 mg/dL in the data analysis.

[5] = target: T1, native insulin receptor (Insr) (Rattus norvegicus, UniProt P15127); assay: In vitro cell-free phosphorylation of native insulin receptor; format: biochemical; settings: 3.8 μM, cell-free (FIG. 27)
T1 construct: native insulin receptor proteins, containing both alpha and beta subunits; purchased Sigma I9266; host or cells: purified from rat liver tissue
Description: In vitro phosphorylation of Insr was performed according to Sigma's protocol with the following modifications. In brief, 10 μl of native insulin receptor solution containing 0.8 μl of original native INSR stock solution (Sigma, Catalog #I9266; diluted in enzyme dilution buffer containing 50 mM HEPES, pH 7.6, 150 mM NaCl and 0.1% Triton X-100) were incubated with equal volume of solutions containing insulin (Sigma), DMSO (Compound #43 solvent), Compound #43 or Compound #68 (diluted in 50 mM HEPES, pH 7.6 and 100 μg/ml bovine serum albumin) on ice for 30 min. Then 20 μl of 2× kinase buffer containing 0.2 mM ATP, 50 mM HEPES, pH 7.6, 50 mM MgCl2 and 4 mM MnCl2 were added to the above reactions, mixed and incubated on ice for 45 minutes.
Five microliters of the above reactions were immediately subjected to Western blot analysis using specific antibodies against phosphorylated tyrosine residues at 1146, 1150 and 1151 of Insrβ proteins (Cell Signaling Inc.). Protein band density was determined using the NIH Image J software.

[6] = test system: H4IIE cells; assay: Glucose production assay in H4IIE cells; format: cell-based, rat
Description: as §1, §2, §3

[7] = test system: HepG2 cells; assay: Cell viability (CellTiter96 AQueous One) in HepG2 cells; format: cell-based, human; settings: higher doses 0.5-4 mM
Description: as §2

[8] = test system: H4IIE cells; assay: Cell viability (CellTiter96 AQueous One) in H4IIE cells; format: cell-based, rat; settings: tested doses
Description: as §2

[9] = tested doses, serum-free glucose production media, 48 hr (FIG. 1)
[10] = 25 μg selenium/kg ip daily for 43 days from 41 days of age (FIG. 5)
[11] = 25 μg selenium/kg ip daily, 90 days, from 41 days of age

T1 sequence (P15127 764-1383 limits assumed): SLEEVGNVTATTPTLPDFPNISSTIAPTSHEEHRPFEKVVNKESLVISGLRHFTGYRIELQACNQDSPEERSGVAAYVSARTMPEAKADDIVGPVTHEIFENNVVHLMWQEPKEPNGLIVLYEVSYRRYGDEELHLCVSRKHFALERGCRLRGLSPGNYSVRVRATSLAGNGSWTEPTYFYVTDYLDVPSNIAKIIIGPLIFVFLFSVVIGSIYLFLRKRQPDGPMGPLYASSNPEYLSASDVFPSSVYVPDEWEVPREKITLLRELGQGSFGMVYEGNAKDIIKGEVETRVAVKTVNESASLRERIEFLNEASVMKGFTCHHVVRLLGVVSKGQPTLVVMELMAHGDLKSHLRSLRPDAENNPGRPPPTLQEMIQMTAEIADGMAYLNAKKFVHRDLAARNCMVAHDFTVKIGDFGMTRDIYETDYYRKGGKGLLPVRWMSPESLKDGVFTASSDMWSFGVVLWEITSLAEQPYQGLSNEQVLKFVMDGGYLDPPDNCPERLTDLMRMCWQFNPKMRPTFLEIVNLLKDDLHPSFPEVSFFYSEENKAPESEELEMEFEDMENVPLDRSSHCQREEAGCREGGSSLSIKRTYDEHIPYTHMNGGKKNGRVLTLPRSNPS
T1 sequence (P15127 27-759 partner limits assumed): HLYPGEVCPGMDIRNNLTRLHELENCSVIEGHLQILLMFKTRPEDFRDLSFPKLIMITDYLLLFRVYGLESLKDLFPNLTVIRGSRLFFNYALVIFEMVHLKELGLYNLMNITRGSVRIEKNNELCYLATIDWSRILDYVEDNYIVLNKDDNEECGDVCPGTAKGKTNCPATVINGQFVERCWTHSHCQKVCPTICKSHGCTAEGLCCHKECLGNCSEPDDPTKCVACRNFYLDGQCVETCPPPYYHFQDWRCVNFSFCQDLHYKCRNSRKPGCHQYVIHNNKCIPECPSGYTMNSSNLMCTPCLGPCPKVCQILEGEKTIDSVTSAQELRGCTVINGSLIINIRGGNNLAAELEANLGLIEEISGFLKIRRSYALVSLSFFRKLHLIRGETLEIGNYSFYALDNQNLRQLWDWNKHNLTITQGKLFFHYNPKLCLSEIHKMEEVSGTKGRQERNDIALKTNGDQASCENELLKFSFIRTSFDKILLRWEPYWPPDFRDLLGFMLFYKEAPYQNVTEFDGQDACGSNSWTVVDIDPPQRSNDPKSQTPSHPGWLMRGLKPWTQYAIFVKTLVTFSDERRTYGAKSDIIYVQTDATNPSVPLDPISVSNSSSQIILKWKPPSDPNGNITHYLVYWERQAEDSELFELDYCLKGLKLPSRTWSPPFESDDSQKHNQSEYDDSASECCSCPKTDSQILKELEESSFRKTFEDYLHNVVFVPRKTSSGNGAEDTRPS

Compound: C[C@H]1O[C@@H](n2cnc3c(N)ncnc32)C[C@@H]1O [Compound #59, 2′,5′-Dideoxyadenosine, reference compound]
- effect on glucose production in HepG2 cells [1, 9]: did not inhibit glucose production

Compound: Nc1ncnc2[nH]cnc12 [Compound #62, Adenine, reference compound]
- effect on glucose production in HepG2 cells [1, 9]: did not inhibit glucose production

Compound: CSC[C@H]1O[C@@H](n2cnc3c(N)ncnc32)[C@H](OC(C)=O)[C@@H]1OC(C)=O [Compound #68, Adenosine, 5′-S-methyl-5′-thio-, 2′,3′-diacetate]
- effect on glucose production in HepG2 cells [1, 9]: minimal effects in lowering glucose production
- effect on fasting blood glucose levels ([2]; 25 μg selenium or sulfur/kg ip daily, 3 months (FIG. 4)): did not significantly lower blood glucose levels
- effect on blood HbA1c levels ([2]; 25 μg sulfur/kg ip daily, 3 months (FIG. 4)): did not affect blood HbA1c levels
- overt toxic effects (morphology, walking behavior, body weight) ([3]; 25 μg selenium or sulfur/kg ip daily, 3 months): no overt toxic effects
- glucose tolerance (overall) ([4]; 25 μg selenium or sulfur/kg ip daily 2 months (FIG. 8B)): little or no effects to improve glucose tolerance
- blood glucose level at 2 hr after glucose injection ([4]; FIG. 8B, 2 months treatment): no obvious decrease of blood glucose levels
- activation of Insr [5]: less effective at the tested dose than Compound #43

Compound: CCCC(=O)OC1C(OC(=O)CCC)[C@@H](C[Se]C)O[C@H]1n1cnc2c(N)ncnc21 (stereo partly drawn) [Compound #70, Adenosine, 5′-Se-methyl-5′-selino-, 2′,3′-dibutanoate]
- effect on glucose production in HepG2 cells [1, 9]: inhibited glucose production
- effect on fasting blood glucose levels [2, 10]: decrease of fasting blood glucose levels in Lepr^db/db mice but less significant than Compound #43
- decrease of HbA1c levels (initial assessments) ([2]; 25 μg selenium/kg ip daily for 90 days (FIG. 5), later revised): about 50%
- effect on HbA1c levels [2]: neither Compound #69 nor Compound #70 had any significant effect
- overt toxic effects (morphology, walking behavior, body weight) [3, 11]: no overt toxic effects
- blood glucose level at 2 hr after glucose injection ([4]; FIG. 8C, 43 days treatment): slight but non-significant decrease in blood glucose levels

Compound: Adenosine, F—Se-methyl-F-seleno-, 2′-morpholinocarbamate and Adenosine, 5′-Se-methyl-F-seleno-, 3′-morpholinocarbamate [Compound #53]
- effect on glucose production in HepG2 cells [1, 9]: inhibited glucose production

Compound: Nc1ncnc2c1ncn2[C@@H]1O[C@H](CO)[C@@H](O)[C@H]1O [Compound #57, Adenosine, reference compound]
- effect on glucose production in HepG2 cells [1, 9]: did not inhibit glucose production

Compound: C[S+](CC[C@H](N)C(=O)O)C[C@H]1O[C@@H](n2cnc3c(N)ncnc32)C(O)C1O.[I-] (stereo partly drawn) [Compound #64, S-(5′-Adenosyl)-L-methionine iodide (SAM), reference compound]
- effect on glucose production in HepG2 cells [1, 9]: minimal effects in lowering glucose production

- IC50 ([6]; Rattus norvegicus, H4IIE, serum-free, 24 hr, read-out: IC50 (inhibition of glucose production)): 275 µM
Compound: CN(C)C(=N)N=C(N)N [metformin, reference compound]
- effect on glucose production in HepG2 cells ([1]; 500 μM): did not inhibit glucose production
- inhibitory activity on glucose production in H4IIE cells ([6]; 36.25 μM): little or no inhibitory activity
- effect on glucose production in H4IIE cells ([6]; serum-free, 24 hr (FIG. 2)): dose-dependent decrease in glucose production
- cell toxicity [7]: showed cell toxicity
- toxic effect on cell viability [8]: No toxic effect

Compound: Nc1ncnc2c1ncn2C1CCCO1 (stereo not drawn) [Compound #61, 9-(tetrahydrofuran-2-yl)-9h-purin-6-amine (SQ 22,536), reference compound]
- effect on glucose production in HepG2 cells [1, 9]: did not inhibit glucose production

Compound: Adenosine, 5′-Se-methyl-5′-selino-, 2′,3′-dipropionate [Compound #69]
- effect on glucose production in HepG2 cells [1, 9]: inhibited glucose production
- effect on fasting blood glucose levels [2, 10]: slight increase in fasting blood glucose levels
- effect on HbA1c levels [2]: did not result in a significant decrease of HbA1c levels
- overt toxic effects (morphology, walking behavior, body weight) [3, 11]: no overt toxic effects
- blood glucose level at 2 hr after glucose injection ([4]; FIG. 8C, 43 days treatment): slight but non-significant decrease in glucose levels

— patent US11613552B2, “Pharmaceutical agents, compositions, and methods relating thereto” (Alltech, Inc., priority 2017, dated 2023)
